{"source": "patent EP4527828A1", "about": "“BIPHENYL COMPOUND, PHARMACEUTICAL COMPOSITION, METHOD FOR PREPARING SAME, AND USE THEREOF” (Longivitron (Suzhou) Biotechnology Co., Ltd, priority 2022, dated 2023)", "key": {"LAG3/MHCII": {"molecular_target": "T1, LAG3/MHCII (Homo sapiens, UniProt P18627)", "T1 sequence (P18627 23-450 limits assumed)": "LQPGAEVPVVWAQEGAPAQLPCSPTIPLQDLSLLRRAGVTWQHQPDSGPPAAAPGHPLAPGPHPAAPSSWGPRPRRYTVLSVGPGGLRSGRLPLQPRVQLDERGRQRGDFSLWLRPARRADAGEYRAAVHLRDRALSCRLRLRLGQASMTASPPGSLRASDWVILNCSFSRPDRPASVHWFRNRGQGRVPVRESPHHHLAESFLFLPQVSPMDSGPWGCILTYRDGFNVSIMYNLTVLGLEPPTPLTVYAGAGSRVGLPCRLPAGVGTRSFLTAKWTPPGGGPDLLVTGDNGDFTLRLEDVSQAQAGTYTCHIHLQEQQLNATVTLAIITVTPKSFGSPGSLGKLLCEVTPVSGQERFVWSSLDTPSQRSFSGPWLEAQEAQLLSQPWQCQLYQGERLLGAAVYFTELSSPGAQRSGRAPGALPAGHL", "assay": "HTRF binding inhibition of LAG3 and its ligand MHCII", "conditions": "binding inhibition LAG3/MHCII", "method": "HTRF (Homogeneous time-resolved fluorescence) is based on two techniques, fluorescence resonance energy transfer (FRET) and time-resolved fluorescence (TRF). The detection was carried out using a 384-well plate. 2 µL of a compound to be tested with an appropriate concentration was collected, 4 µL of Tag1-LAG3 protein (with a final concentration of 10 nmol·L^-1) was added, 4 µL of Tag2-MHCII (with a final concentration of 20 nmol·L^-1) was added, and the plate was incubated at room temperature for 15 min. 10 µL of Anti-Tag1-Tb working solution (prepared by adding 25 µL of Anti-Tag1-Tab mother solution to 2475 µL of dilution buffer) was added, 10 µL of Anti-Tag2-XL665 working solution (prepared by adding 25 µL of Tag2-XL665 mother solution to 2475 µL of dilution buffer) was added, and the plate was sealed with a film and incubated at room temperature for 1 h. The detection was carried out using a Perkin Elma Envision instrument."}, "Human LAG3 protein": {"molecular_target": "T2, Human LAG3 protein (Homo sapiens, UniProt P18627)", "T2 sequence (P18627 23-525)": "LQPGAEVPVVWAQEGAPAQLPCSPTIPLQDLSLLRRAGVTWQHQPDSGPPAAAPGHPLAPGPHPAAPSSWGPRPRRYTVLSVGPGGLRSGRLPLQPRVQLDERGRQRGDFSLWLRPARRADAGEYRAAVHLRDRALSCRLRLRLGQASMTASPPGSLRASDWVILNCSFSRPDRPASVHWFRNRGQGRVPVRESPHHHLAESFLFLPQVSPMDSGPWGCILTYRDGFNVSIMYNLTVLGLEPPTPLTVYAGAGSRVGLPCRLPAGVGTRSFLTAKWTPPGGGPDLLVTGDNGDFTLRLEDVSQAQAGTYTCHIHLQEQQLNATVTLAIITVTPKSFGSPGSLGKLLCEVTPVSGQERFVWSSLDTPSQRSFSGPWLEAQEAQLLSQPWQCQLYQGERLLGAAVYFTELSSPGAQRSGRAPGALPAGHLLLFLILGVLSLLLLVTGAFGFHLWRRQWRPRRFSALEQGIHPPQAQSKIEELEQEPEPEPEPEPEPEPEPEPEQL", "assay": "SPR interaction assay, CM5 chip amino coupling, human LAG3", "type": "binding", "conditions": "for Rmax / Kd / Note / kon / koff: ligand Human LAG3 protein; for Kd: Compound 9 fitted in steady-state mode; for Note: bound or not bound; for kon: read-out: Ka; for koff: read-out: Kd", "description": "(§1) A surface plasmon is an electromagnetic wave on a metal surface and is generated by the interaction of photons and electrons which are freely vibrated. Surface plasmon resonance (SPR) is an optical phenomenon that occurs on the surfaces of two media, and such a phenomenon can be induced by photons or electrons. When light enters an optically thinner medium from an optically denser medium, the phenomenon of total reflection occurs, and an evanescent wave is generated and enters the optically thinner medium. When the totally reflected evanescent wave meets the plasmon wave on the metal surface, resonance may occur, the energy of the reflected light decreases, and a resonance peak occurs on the energy spectrum of the reflected light. Such a resonance is called surface plasmon resonance. The angle of incidence causing the surface plasmon resonance is called an SPR angle. An SPR biosensor provides a sensitive, non-labeled detection technique for monitoring intermolecular interactions in real time. The sensor detects the change in the SPR angle, and the SPR is related to the refractive index of the metal surface. When an analyte binds to the chip surface, the refractive index of the chip surface changes, thus causing the change in the SPR angle. This is the basic principle for the SPR biosensor to detect intermolecular interactions in real time. During the interaction analysis, the change in the SPR angle is recorded on the sensorgram in real time.\nThrough the information query, the theoretical isoelectric point of the LAG3 protein is about 9.82, and the amino coupling method was contemplated to immobilize the protein. Since the main ligands of the LAG3 protein are FGL1 and MHCII proteins, after the LAG3 protein was coupled, the FGL1 protein sampling method was used to verify the protein activity.\n(§2) Protein coupling buffer solution: 1.05× PBS-P+; 1.02× PBS-P+\n(§3) Interaction buffer solution: 1.0× PBS-P+, 5% DMSO; 1.0× PBS-P+, 2% DMSO\nIn this experiment, by using the CM5 chip amino coupling method, the human LAG3 protein was immobilized to the Fc2 or Fc3 channel, and the mouse LAG3 protein was immobilized to the Fc3 or Fc4 channel.\nLAG3 protein coupling conditions were as follows: the concentration was about 25 µg/mL, the system was sodium acetate solution with a pH of 5.5, the chip activation time was 420 s, and the blocking time was 420 s.\nLAG3 protein coupling conditions were as follows: the concentration was about 50 µg/mL, the system was sodium acetate solution with a pH of 4.5, the chip activation time was 420 s, and the blocking time was 420 s."}, "Human FGL1 protein": {"molecular_target": "T3, Human FGL1 protein (Homo sapiens, UniProt Q08830)", "T3 sequence (Q08830 23-312)": "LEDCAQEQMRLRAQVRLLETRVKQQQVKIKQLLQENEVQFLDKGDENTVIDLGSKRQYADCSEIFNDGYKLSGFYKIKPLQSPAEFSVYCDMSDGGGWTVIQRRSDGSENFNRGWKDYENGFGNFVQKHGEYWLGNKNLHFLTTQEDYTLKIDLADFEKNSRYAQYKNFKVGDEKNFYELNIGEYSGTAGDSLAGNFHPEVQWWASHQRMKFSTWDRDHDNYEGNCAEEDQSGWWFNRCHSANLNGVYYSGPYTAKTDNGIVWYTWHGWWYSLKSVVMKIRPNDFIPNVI", "assay": "SPR interaction assay, human FGL1", "type": "binding", "conditions": "for Note: bound or not bound; for kon: read-out: Ka; for koff: read-out: Kd", "description": "as §1, §2, §3"}, "[1]": {"conditions": "SPR, ligand FGL1 protein, read-out: KD"}, "[2]": {"conditions": "text summary of Table 4, read-out: affinities with the new ligand FGL1 of LAG3"}}, "note": "Read-outs that look alike come from different tables or passages of the source.", "data": [{"compound": "CCCCCCOc1ccc(C(=O)O)cc1-c1cc(C(=O)NCCCCNC(=O)C(F)(F)F)ccc1OCCCCCC", "note": "[Compound 8]", "values": [{"measurement": "IC50", "setting": "LAG3/MHCII", "value": 8.34, "unit": "µM"}, {"measurement": "interaction with the human LAG3 protein", "setting": "Human LAG3 protein", "value": "interacts with the human LAG3 protein"}, {"measurement": "Rmax", "setting": "Human LAG3 protein", "value": 8.639, "unit": "RU"}, {"measurement": "Kd", "setting": "Human LAG3 protein", "value": 7.76, "unit": "µM"}, {"measurement": "Note", "setting": "Human LAG3 protein", "value": "Bound"}, {"measurement": "kon", "setting": "Human LAG3 protein", "value": 446, "unit": "M⁻¹ s⁻¹"}, {"measurement": "koff", "setting": "Human LAG3 protein", "value": 0.00346, "unit": "s⁻¹"}, {"measurement": "interaction with the human FGL1 protein", "setting": "Human FGL1 protein; SPR", "value": "interacts with the human FGL1 protein"}, {"measurement": "Rmax", "setting": "Human FGL1 protein; SPR, ligand FGL1 protein", "value": 28.91, "unit": "RU"}, {"measurement": "Note", "setting": "Human FGL1 protein; SPR, ligand FGL1 protein", "value": "Bound"}, {"measurement": "Kd", "setting": "Human FGL1 protein; [1]", "value": 15.7, "unit": "µM"}, {"measurement": "kon", "setting": "Human FGL1 protein; SPR, ligand FGL1 protein", "value": 1470, "unit": "M⁻¹ s⁻¹"}, {"measurement": "koff", "setting": "Human FGL1 protein; SPR, ligand FGL1 protein", "value": 0.0231, "unit": "s⁻¹"}, {"measurement": "Kd", "setting": "Human FGL1 protein; [2]", "value": "~10", "unit": "µM"}]}, {"compound": "CCCCCCOc1ccc2cc1-c1cc(ccc1OCCCCCC)C(=O)CCCCCC2=O", "note": "[Compound 4]", "values": [{"measurement": "IC50", "setting": "LAG3/MHCII", "value": 18, "unit": "µM"}, {"measurement": "interaction with the human LAG3 protein", "setting": "Human LAG3 protein", "value": "interacts with the human LAG3 protein"}, {"measurement": "Rmax", "setting": "Human LAG3 protein", "value": 124.7, "unit": "RU"}, {"measurement": "Kd", "setting": "Human LAG3 protein", "value": 52.9, "unit": "µM"}, {"measurement": "Note", "setting": "Human LAG3 protein", "value": "Bound"}, {"measurement": "kon", "setting": "Human LAG3 protein", "value": 418, "unit": "M⁻¹ s⁻¹"}, {"measurement": "koff", "setting": "Human LAG3 protein", "value": 0.0221, "unit": "s⁻¹"}, {"measurement": "interaction with the human FGL1 protein", "setting": "Human FGL1 protein; SPR", "value": "interacts with the human FGL1 protein"}, {"measurement": "Rmax", "setting": "Human FGL1 protein; SPR, ligand FGL1 protein", "value": 14.02, "unit": "RU"}, {"measurement": "Note", "setting": "Human FGL1 protein; SPR, ligand FGL1 protein", "value": "Bound"}, {"measurement": "Kd", "setting": "Human FGL1 protein; [1]", "value": 23.2, "unit": "µM"}, {"measurement": "kon", "setting": "Human FGL1 protein; SPR, ligand FGL1 protein", "value": 2130, "unit": "M⁻¹ s⁻¹"}, {"measurement": "koff", "setting": "Human FGL1 protein; SPR, ligand FGL1 protein", "value": 0.0504, "unit": "s⁻¹"}, {"measurement": "Kd", "setting": "Human FGL1 protein; [2]", "value": "~10", "unit": "µM"}]}]}
